Data from paper PMC8306930, “A Comparative Analysis of the In Vitro Anticancer Activity of Iridium(III) {η^5-C5Me4R} Complexes with Variable R Groups” (International Journal of Molecular Sciences, 2021).

How the values were obtained:
[1] = tested on: SW620 human colorectal adenocarcinoma cells; test: CV viability assay, SW620; type: cell-based; conditions: SW620, 72 h exposure, mean ± SD
Excerpt: (§1) The rat astrocytoma C6 cell line and murine melanoma B16 cell line were kindly gifted by Dr. L. Harhaji–Trajkovic, Institute for Biological Research “Sinisa Stankovic”—National Institute of Republic of Serbia (IBISS), and from Dr. Sinisa Radulovic (Institute for Oncology and Radiology of Serbia), respectively. Human colorectal (SW620 and HCT116), breast (MCF-7), and ovarian (A2780) cancer cell lines and non-malignant fibroblast cell line (MRC5) were purchased from the American Type Culture Collection (ATCC, Manassas, Virginia, USA). […] For viability assays, cells were seeded in listed densities/well: B16 and C6: 3 × 10^3; SW620: 9 × 10^3; A2780 and HCT116: 5 × 10^3; MCF-7: 8 × 10^3 and MRC5: 7 × 10^3. For flow cytometry, A2780 cells were seeded at 2 × 10^5 density/well in 6-well plates. Peritoneal macrophages were collected from the peritoneal cavity of C57BL/6 mice from the animal facility of IBISS by cavity lavage with ice-cold PBS. […] Macrophages were counted, seeded at 2 × 10^5 cells/well in 96-well plates for viability assay, and then left for 2 h to adhere. Before treatment, non-adherent cells were removed. The handling of animals and protocol for obtaining macrophages is in the agreement with the rules of the European Union and approved by the Institutional Animal Care and Use Committee at IBISS (No. 02-09/16).
(§2) Stock solutions of 1b, 1c, 1d, and 1e were prepared in ethanol at concentration of 20 mM and kept at −20 °C, while 10 mM stock solution of cisplatin was prepared in DMF just before the usage. Desired final concentrations were obtained by dilution in culture medium.
(§3) Cells were treated with various concentrations (up to 50 or 100 µM) of the above-mentioned complexes for 72 h. For the detection of mitochondrial respiration, cells were cultivated in the presence of MTT staining solution (0.5 mg/mL) for approximately 1 h at 37 °C. The dye was then discarded, and the formed formazan crystals (purple) were dissolved in DMSO. For an evaluation of viable attached cells, cells were fixed with 4% PFA for 10 min at room temperature, and subsequently stained for 15 min with 0.02% CV solution. […] The absorbance was measured with an automated microplate reader at 540 nm, with a reference wavelength of 670 nm. The IC50 values were calculated using a four-parameter logistic function and presented as mean ± SD from three independent experiments.

[2] = tested on: HCT116 human colorectal carcinoma cells; test: CV viability assay, HCT116; type: cell-based; conditions: HCT116, 72 h exposure, mean ± SD
Excerpt: as §1, §2, §3

[3] = tested on: A2780 human ovarian cancer cells; test: CV viability assay, A2780; type: cell-based; conditions: A2780, 72 h exposure, mean ± SD
Excerpt: as §1, §2, §3

[4] = tested on: SW620 human colorectal adenocarcinoma cells; test: MTT viability assay, SW620; type: cell-based; conditions: SW620, 72 h exposure, mean ± SD
Excerpt: as §1, §2, §3

[5] = tested on: C6 rat glioma cells; test: CV viability assay, C6; type: cell-based; conditions: C6, 72 h exposure, mean ± SD
Excerpt: as §1, §2, §3

[6] = tested on: MRC5 human fibroblast cells; test: CV viability assay, MRC5; type: cell-based; conditions: MRC5, 72 h exposure, mean ± SD
Excerpt: as §1, §2, §3

[7] = tested on: MRC5 human fibroblast cells; test: MTT viability assay, MRC5; type: cell-based; conditions: MRC5, 72 h exposure, mean ± SD
Excerpt: as §1, §2, §3

[8] = tested on: MCF-7 human breast cancer cells; test: CV viability assay, MCF-7; type: cell-based; conditions: MCF-7, 72 h exposure, mean ± SD
Excerpt: as §1, §2, §3

[9] = Stability in D2O mixtures by 1H NMR; type: physicochemical
Experimental: Complexes were dissolved in acetone-d6/D2O 2:1 (1b,d), DMSO-d6/D2O 2:1 (2a–d and 3), or methanol-d4/D2O 2:1 (1c) ([Ir] ≈ 10^−3 mol L^−1), then dimethyl sulfone (0.05 mL, 0.164 mmol) was added as internal standard. The mixtures were filtered through a celite pad, and the filtrated solutions were analyzed by ^1H NMR spectroscopy.
The solutions were then stored for 72 h at 37 °C, and new NMR analyses were subsequently performed.

[10] = tested on: B16 mouse melanoma cells; test: CV (crystal violet) viability assay, B16; type: cell-based; conditions: B16, 72 h exposure, mean ± SD
Excerpt: as §1, §2, §3

[11] = tested on: panel of six human and rodent cancer cell lines and MRC5; test: Cytotoxic activity over the whole cell line panel (MTT and CV); type: cell-based; conditions: 72 h; for Cytotoxic activity in words: all investigated cell lines
Experimental: Cells were treated with various concentrations (up to 50 or 100 µM) of the above-mentioned complexes for 72 h. For the detection of mitochondrial respiration, cells were cultivated in the presence of MTT staining solution (0.5 mg/mL) for approximately 1 h at 37 °C. The dye was then discarded, and the formed formazan crystals (purple) were dissolved in DMSO. For an evaluation of viable attached cells, cells were fixed with 4% PFA for 10 min at room temperature, and subsequently stained for 15 min with 0.02% CV solution. Cells were then washed with tap water, dried in air, and the CV dye was dissolved in 33% acetic acid. The absorbance was measured with an automated microplate reader at 540 nm, with a reference wavelength of 670 nm. The IC50 values were calculated using a four-parameter logistic function and presented as mean ± SD from three independent experiments.

[12] = tested on: HCT116 human colorectal carcinoma cells; test: MTT viability assay, HCT116; type: cell-based; conditions: HCT116, 72 h exposure, mean ± SD
Excerpt: as §1, §2, §3

[13] = tested on: C6 rat glioma cells; test: MTT viability assay, C6; type: cell-based; conditions: C6, 72 h exposure, mean ± SD
Excerpt: as §1, §2, §3

[14] = tested on: A2780 human ovarian cancer cells; test: MTT viability assay, A2780; type: cell-based; conditions: A2780, 72 h exposure, mean ± SD
Excerpt: as §1, §2, §3

[15] = tested on: B16 mouse melanoma cells; test: MTT viability assay, B16; type: cell-based; conditions: B16, 72 h exposure, mean ± SD
Excerpt: as §1, §2, §3

[16] = tested on: MCF-7 human breast cancer cells; test: MTT viability assay, MCF-7; type: cell-based; conditions: MCF-7, 72 h exposure, mean ± SD
Excerpt: as §1, §2, §3

[17] = tested on: A2780 cells; test: Intracellular nitric oxide, DAF-FM flow cytometry; type: cell-based, human; conditions: A2780, IC50 doses, 48 h, with respect to untreated cultures
Experimental: (§4) Experiments were carried out in three independent replicates.

[18] = tested on: primary mouse peritoneal cells; test: Viability of primary mouse peritoneal cells (macrophages); type: cell-based
Excerpt: The rat astrocytoma C6 cell line and murine melanoma B16 cell line were kindly gifted by Dr. L. Harhaji–Trajkovic, Institute for Biological Research “Sinisa Stankovic”—National Institute of Republic of Serbia (IBISS), and from Dr. Sinisa Radulovic (Institute for Oncology and Radiology of Serbia), respectively. Human colorectal (SW620 and HCT116), breast (MCF-7), and ovarian (A2780) cancer cell lines and non-malignant fibroblast cell line (MRC5) were purchased from the American Type Culture Collection (ATCC, Manassas, Virginia, USA). […] For viability assays, cells were seeded in listed densities/well: B16 and C6: 3 × 10^3; SW620: 9 × 10^3; A2780 and HCT116: 5 × 10^3; MCF-7: 8 × 10^3 and MRC5: 7 × 10^3. For flow cytometry, A2780 cells were seeded at 2 × 10^5 density/well in 6-well plates. […] Macrophages were counted, seeded at 2 × 10^5 cells/well in 96-well plates for viability assay, and then left for 2 h to adhere. […]
Cells were treated with various concentrations (up to 50 or 100 µM) of the above-mentioned complexes for 72 h. […] The absorbance was measured with an automated microplate reader at 540 nm, with a reference wavelength of 670 nm. The IC50 values were calculated using a four-parameter logistic function and presented as mean ± SD from three independent experiments.

[19] = tested on: A2780 cells; test: Senescence, FDG assay of beta galactosidase activity, flow cytometry; type: cell-based, human; conditions: A2780, IC50 doses, 48 h, in comparison to the control
Experimental: as §4

[20] = tested on: A2780 cells; test: Mitochondrial membrane potential, DiOC6(3) flow cytometry; type: cell-based, human; conditions: A2780, IC50 doses, 24 h, in comparison with untreated cells
Experimental: as §4

[21] = tested on: A2780 cells; test: Autophagosomes, acridine orange flow cytometry; type: cell-based, human; conditions: A2780, IC50 doses, 48 h, AO
Experimental: as §4

[22] = tested on: A2780 cells; test: Cell proliferation, CFSE flow cytometry; type: cell-based, human; conditions: A2780, IC50 doses, 72 h of incubation
Experimental: as §4

[23] = tested on: A2780 cells; conditions: A2780, IC50 doses, 48 h, AnnV/PI
Experimental: as §4

[24] = tested on: A2780 cells; test: ROS/RNS, DHR123 flow cytometry; type: cell-based, human; conditions: A2780, IC50 doses, 48 h, DHR123, with respect to untreated cultures
Experimental: as §4

For `CC1=C(C)[C](c2ccc(F)cc2)([Ir]([Cl])[Cl])C(C)=C1C.CC1=C(C)[C](c2ccc(F)cc2)([Ir]([Cl])[Cl])C(C)=C1C` [Complex 1d], the IC50 [1] was 18.5 ± 0.4 µM, the IC50 [2] was 14.5 ± 1.5 µM and the IC50 [3] was 20.2 ± 0.3 µM. The IC50 [4] was 8 ± 2 µM, the IC50 [5] was 49 ± 1 µM and the IC50 [6] was 22.2 ± 0.1 µM. For the same molecule, the IC50 [7] was 19.1 ± 0.2 µM, the IC50 [8] was 30 ± 0.4 µM and the “Variation of 1H NMR spectra on storage” value ([9]; acetone-d6/D2O 2:1 (1b,d) or methanol-d4/D2O 2:1 (1c), 72 h at 37 °C, progressive precipitation) was “no significant variations”. The IC50 [10] was 28.1 ± 0.1 µM, the “Cytotoxic activity in words” value [11] was “moderate cytotoxicity” and the IC50 [12] was 8.1 ± 0.7 µM. It also gave an IC50 [13] of 34 ± 2 µM, an IC50 [14] of 16 ± 0.3 µM and an IC50 [15] of 20.4 ± 0.1 µM. It also gave an IC50 [16] of 9.2 ± 0.5 µM.

With `CC1=C(C)[C](c2ccc(O)cc2)([Ir]([Cl])[Cl])C(C)=C1C.CC1=C(C)[C](c2ccc(O)cc2)([Ir]([Cl])[Cl])C(C)=C1C` [Complex 1e] the IC50 [1] was > 100 µM, the IC50 [2] was 79 ± 8 µM and the IC50 [4] was > 100 µM. The IC50 [5] was > 100 µM, the IC50 [6] was > 100 µM and the IC50 [7] was > 100 µM. The IC50 [8] was 94 ± 8 µM, the “Behaviour in aqueous media in the presence of DMSO” value ([9]; aqueous media with DMSO) was “rapid conversion into 3” and the IC50 [10] was > 100 µM. The “Cytotoxic activity in words” value [11] was “substantially inactive”, the IC50 ([11]; cell lines on which 1e is active, read-out: IC50 values, range over sensitive cell lines) was 80 to 90 µM and the IC50 [12] was 80 ± 3 µM. For the same molecule, the IC50 [13] was 90 ± 14 µM, the IC50 [15] was > 100 µM and the IC50 [16] was 88 ± 12 µM.

For `CS(C)=O.Cc1c(C)c(C)[c-](-c2ccc(O)cc2)c1C.[Cl][Ir+][Cl]` [Complex 3, (4-(2,3,4,5-tetramethylcyclopenta-1,4-dien-1-yl)phenol)dimethylsulfoxide iridium(III)dichloride], the IC50 [1] was > 100 µM, the IC50 [2] was > 100 µM and the IC50 [4] was > 100 µM. The IC50 [5] was > 100 µM, the IC50 [6] was > 100 µM and the IC50 [7] was > 100 µM. For the same molecule, the IC50 [8] was > 100 µM, the “Fraction of unaltered compound” value ([9]; DMSO-d6/D2O 2:1, 72 h at 37 °C, 1H NMR, dimethyl sulfone standard) was 98% and the IC50 [10] was > 100 µM. The “Cytotoxic activity in words” value [11] was “inactive”, the IC50 [12] was > 100 µM and the IC50 [13] was > 100 µM. The IC50 [15] was > 100 µM and the IC50 [16] was > 100 µM.

In the case of “tetramethylcyclopentadienyl)(2-phenylpyridine)iridium(III)chloride [Complex 2b]”, the IC50 [1] is reported as 2.9 ± 0.5 µM, the IC50 [2] is reported as 7 ± 2 µM and the “Increase of intracellular level of NO” value [17] is reported as 40.9%. For the same molecule, the “Effect on viability of primary mouse peritoneal cells” value [18] was “did not affect viability”, the “Increase of beta galactosidase activity” value [19] was 38.4% and the IC50 [3] was 4.4 ± 0.6 µM. The IC50 [4] was 2.6 ± 0.1 µM, the IC50 [5] was 2.6 ± 0.1 µM and the IC50 [6] was 6 ± 2 µM. The Mitochondrial membrane hyperpolarization [20] was 32.3%, the IC50 [7] was 6.7 ± 0.2 µM and the IC50 [8] was 37 ± 3 µM. For the same molecule, the IC50 [10] was 3 ± 0.1 µM, the “High percentage of autophagosomes” value [21] was “not recognized” and the IC50 [12] was 8 ± 0.2 µM. For the same molecule, the “Effect on cell proliferation” value [22] was “inhibition of cell proliferation”, the “Induction of apoptotic cell death” value [23] was “modest induction” and the “Increase of intracellular levels of H2O2, HOCl and ONOO− (in total)” value [24] was 46.4%. The IC50 [13] was 2.4 ± 0.3 µM, the IC50 [14] was 5.5 ± 0.5 µM and the IC50 [15] was 2.5 ± 0.2 µM. The IC50 [16] was 8.6 ± 0.2 µM.
